In US11779585B2 (priority 2020, dated 2023):
Where “and” joins values, the source holds several entries; their conditions need not be identical. Identical values can stand only once. Like-named read-outs stand apart in the source and are kept apart here.

What was measured:
[1] = cited from earlier work
SARS-CoV-2 [2] = assay: SARS-CoV-2 infection of VeroE6 cells, 48 hours, MOI 0.012; assay type: cell-based
SARS-CoV-2 [3] = assay: SARS-CoV-2 infection of Calu3 human lung cells, 72 hours, MOI 2; assay type: cell-based; details: Severe acute respiratory syndrome coronavirus 2, Calu-3, read-out: Efficacy IC90
[4] = Dogs, cited from earlier work
[5] = African green monkeys, 1.6 mg/kg × 14 days, total dose 22.4; cited from earlier work
SARS-CoV2 = assay: microbe, parasite or virus in culture; assay type: cell-based, SARS-CoV-2; details: for inhibition at 0.075 µM: Severe acute respiratory syndrome coronavirus 2, Vero C1008, 0.075 μM; for inhibition at 0.15 µM: Severe acute respiratory syndrome coronavirus 2, Vero C1008, 0.15 μM; for inhibition at 0.3 µM: Severe acute respiratory syndrome coronavirus 2, Vero C1008, 0.3 μM; for inhibition at 0.6 µM: Severe acute respiratory syndrome coronavirus 2, Vero C1008, 0.6 μM
[6] = cited from earlier work; remark: listed apart in the source
MERS-CoV Jordan virus = assay type: cell-based; details: at a concentration of 0.1 μM, FIG. 1
[7] = Rats, cited from earlier work
[8] = Mice, cited from earlier work
[9] = 0.15 μM, title MOI 0.6 (text MOI 1.3), Plate 1
[10] = 0.3 μM, title MOI 0.6 (text MOI 1.3), Plate 1
[11] = title MOI 0.6 (text MOI 1.3), Plate 1
[12] = title MOI 0.6 (text MOI 1.3), Plate 2

NC(=O)c1cn([C@@H]2O[C@H](CO)[C@@H](O)[C@H]2O)c2ncnc(N)c12 [Oya1, 4-amino-7-((2R,3R,4S,5R)-3,4-dihydroxy-5-(hydroxymethyl)tetrahydrofuran-2-yl)-7H-pyrrolo[2,3-d]pyrimidine-5-carboxamide]
anti-cancer activity ([1]; Phase I clinical trials, humans): inactive against cancer | tolerability in humans ([1]; Phase I clinical trials): well tolerated | Reported Safe Clinical Dosing ([1]; daily dosing × 41): 0.12 mg/kg/day × 41 | MTD (not reached at highest single dose tested) ([1]; humans, Cavins 1967): > 0.3 mg/kg | Observed toxic effect ([1]; humans, daily, highest dosing regimen 120 μg/kg/day × 41 days): 0 | Observed toxic effect ([1]; humans, thrice weekly, highest dosing regimen 50-250 μg/kg/day × 45 days): 0 | Observed toxic effect ([1]; humans, weekly, highest dosing regimen 200 μg/kg/day × 150 days): 0 | IC90 (SARS-CoV-2 [2]; Severe acute respiratory syndrome coronavirus 2, Vero C1008, VeroE6, read-out: Efficacy IC90): 55 nM and 0.017 µg/mL | fold more effective against SARS-CoV-2 than Remdesivir (SARS-CoV-2 [2]; cells with highest infection rate (FIGS. 17A-17B: VeroE6, Calu3)): > 47 fold | IC90 (SARS-CoV-2 [3]): 180 nM and 0.056 µg/mL | LD50, multi dose ([4]; × 14 days): 0.3 × 14 days mg/kg | LD50, single dose [4]: 2.5 mg/kg | LD50, total dose (multi dose) [4]: 4.2 mg/kg | Effect [5]: lethal | fold increase in activity over chlorpromazine HCl (SARS-CoV2): 1000 fold | Inhibition (SARS-CoV2; 0.0047 μM, MOI 0.6, Plate 2): 1.733% and −3.975% and 4.262% | Inhibition (SARS-CoV2; 0.0047 μM, title MOI 0.6 (text MOI 1.3), Plate 2): −0.7543% and −8.894% and 0.3653% | Inhibition (SARS-CoV2; 0.0094 μM, MOI 0.2, Plate 1): 24.36% and 12.99% | Inhibition (SARS-CoV2; 0.0094 μM, MOI 0.4, Plate 1): 9.365% and 6.857% and 1.875% | Inhibition (SARS-CoV2; 0.0094 μM, title MOI 0.6 (text MOI 1.3), Plate 2): 5.994% and 7.809% and 12.95% | Inhibition (SARS-CoV2; 0.0188 μM, title MOI 0.6 (text MOI 1.3), Plate 1): 4.894% and 1.871% and −1.054% | fold better IC50 than GS-441524 (SARS-CoV2; 0.03 μM vs 1.4 μM): 47 fold | Inhibition (SARS-CoV2; 0.0375 μM, MOI 0.2, Plate 2): 31.89% and 46.61% | Inhibition (SARS-CoV2; 0.0375 μM, MOI 0.4, Plate 1): 12.31% and 18.82% | Inhibition (SARS-CoV2; 0.0375 μM, MOI 0.6, Plate 1): 27.4624% and 39.74% and 52.32% | Inhibition (SARS-CoV2; 0.0375 μM, MOI 0.6, Plate 2): 59.38% and 43.5% and 83.02% | Inhibition (SARS-CoV2; 0.075 μM, MOI 0.2, Plate 1): 81.55% and 79.85% | Inhibition (SARS-CoV2; 0.075 μM, MOI 0.2, Plate 2): 88.5915% and 83.72% and 67.19% | Inhibition (SARS-CoV2; 0.075 μM, MOI 0.4, Plate 1): 50.83% and 69.6% and 36.13% | Inhibition (SARS-CoV2; 0.075 μM, MOI 0.4, Plate 2): 24.91% and 28.1512% | Inhibition (SARS-CoV2; 0.075 μM, MOI 0.6, Plate 1): 98.66% and 98.3% | Inhibition (SARS-CoV2; 0.075 μM, MOI 0.6, Plate 2): 97.59% | Inhibition (SARS-CoV2; 0.075 μM, title MOI 0.6 (text MOI 1.3), Plate 1): 100.0792% and 80.42% | Inhibition (SARS-CoV2; 0.075 μM, title MOI 0.6 (text MOI 1.3), Plate 2): 99.3891% and 97.8301% | Inhibition (SARS-CoV2; 0.15 μM, MOI 0.2, Plate 1): 99.12% and 95.59% | Inhibition (SARS-CoV2; 0.15 μM, MOI 0.2, Plate 2): 99.22% | Inhibition (SARS-CoV2; 0.15 μM, MOI 0.4, Plate 1): 98.7% and 94.16% | Inhibition (SARS-CoV2; 0.15 μM, MOI 0.4, Plate 2): 86.8% | Inhibition (SARS-CoV2; 0.15 μM, MOI 0.6, Plate 1): 99.78% and 99.74% | Inhibition (SARS-CoV2; [9]): 100.3795% | Inhibition (SARS-CoV2; 0.3 μM, MOI 0.2, Plate 1): 99.69% | Inhibition (SARS-CoV2; 0.3 μM, MOI 0.2, Plate 2): 99.99% | Inhibition (SARS-CoV2; 0.3 μM, MOI 0.4, Plate 1): 99.72% | Inhibition (SARS-CoV2; 0.3 μM, MOI 0.6, Plate 1): 85.36% | Inhibition (SARS-CoV2; [10]): 97.59% | Inhibition (SARS-CoV2; 0.6 μM, MOI 0.2, Plate 1): 99.15% | Inhibition (SARS-CoV2; 0.6 μM, MOI 0.6, Plate 2): 96.04% | fold greater efficacy (IC50) than remdesivir (SARS-CoV2; Oya1 0.03 μM vs remdesivir 0.77 μM (Wang et al.)): 25 fold | IC50 (SARS-CoV2; Severe acute respiratory syndrome coronavirus 2, Vero C1008): 30 nM | inhibition at 0.0047 µM (SARS-CoV2; Severe acute respiratory syndrome coronavirus 2, Vero C1008, 0.0047 μM, MOI 0.4, Plate 2): 8.02% | inhibition at 0.0094 µM (SARS-CoV2; Severe acute respiratory syndrome coronavirus 2, Vero C1008, 0.0094 μM, MOI 0.4, Plate 2): 15.2% | inhibition at 0.0188 µM (SARS-CoV2; Severe acute respiratory syndrome coronavirus 2, Vero C1008, 0.0188 μM, MOI 0.4, Plate 2): 15.6% | inhibition at 0.0375 µM (SARS-CoV2; Severe acute respiratory syndrome coronavirus 2, Vero C1008, 0.0375 μM, MOI 0.4, Plate 1): 10.9% | inhibition at 0.075 µM (SARS-CoV2; MOI 0.2, Plate 1): 67.8% | inhibition at 0.075 µM (SARS-CoV2; MOI 0.4, Plate 2): 19.8% | inhibition at 0.15 µM (SARS-CoV2; MOI 0.2, Plate 1): 97.2% | inhibition at 0.15 µM (SARS-CoV2; MOI 0.2, Plate 2): 96% | inhibition at 0.15 µM (SARS-CoV2; MOI 0.4, Plate 1): 95.9% | inhibition at 0.15 µM (SARS-CoV2; MOI 0.4, Plate 2): 83.4% | inhibition at 0.15 µM (SARS-CoV2; MOI 0.6, Plate 1): 98.6% | inhibition at 0.15 µM (SARS-CoV2; MOI 0.6, Plate 2): 99.7% | inhibition at 0.15 µM (SARS-CoV2; [11]): 101% | inhibition at 0.15 µM (SARS-CoV2; [12]): 101% | inhibition at 0.3 µM (SARS-CoV2; MOI 0.2, Plate 1): 99.9% | inhibition at 0.3 µM (SARS-CoV2; MOI 0.2, Plate 2): 100% | inhibition at 0.3 µM (SARS-CoV2; MOI 0.4, Plate 1): 96.9% | inhibition at 0.3 µM (SARS-CoV2; MOI 0.4, Plate 2): 91.4% | inhibition at 0.3 µM (SARS-CoV2; MOI 0.6, Plate 1): 100% | inhibition at 0.3 µM (SARS-CoV2; MOI 0.6, Plate 2): 100% | inhibition at 0.3 µM (SARS-CoV2; [11]): 100% | inhibition at 0.3 µM (SARS-CoV2; [12]): 101% | inhibition at 0.6 µM (SARS-CoV2; MOI 0.2, Plate 1): 100% | inhibition at 0.6 µM (SARS-CoV2; MOI 0.2, Plate 2): 99.7% | inhibition at 0.6 µM (SARS-CoV2; MOI 0.4, Plate 1): 100% | inhibition at 0.6 µM (SARS-CoV2; MOI 0.4, Plate 2): 67.4% | inhibition at 0.6 µM (SARS-CoV2; MOI 0.6, Plate 1): 100% | inhibition at 0.6 µM (SARS-CoV2; MOI 0.6, Plate 2): 99.7% | inhibition at 0.6 µM (SARS-CoV2; [11]): 101% | inhibition at 0.6 µM (SARS-CoV2; [12]): 101% | half-life in blood ([6]; Mice): 50 h | cleared ([6]; mice, following 12 days post injection): 40% | inhibition of the MERS-CoV RNA polymerase (MERS-CoV Jordan virus): approximately 100% | Cytotoxicity (Vero E6 cells; 0.0047 μM, MOI 0.6, Plate 1): −3.314% and −2.167% and −3.385% | Cytotoxicity (Vero E6 cells; 0.0047 μM, MOI 0.6, Plate 2): −3.314% and −2.167% and −3.385% | Cytotoxicity (Vero E6 cells; 0.0094 μM, MOI 0.6, Plate 1): −0.2353% and −1.9307% and −0.5813% | Cytotoxicity (Vero E6 cells; 0.0094 μM, MOI 0.6, Plate 2): −0.2353% and −1.9307% and −0.5813% | Cytotoxicity (Vero E6 cells; 0.0188 μM, MOI 0.6, Plate 1): −0.5761% and 5.048% and 2.474% | Cytotoxicity (Vero E6 cells; 0.0188 μM, MOI 0.6, Plate 2): −0.5761% and 5.048% and 2.474% | Cytotoxicity (Vero E6 cells; 0.0375 μM, MOI 0.6, Plate 1): 14.23% and 14.79% and 16.69% | Cytotoxicity (Vero E6 cells; 0.0375 μM, MOI 0.6, Plate 2): 14.23% and 14.79% and 16.69% | Cytotoxicity (Vero E6 cells; 0.075 μM, MOI 0.6, Plate 1): 29.56% and 33.64% and 33.6% | Cytotoxicity (Vero E6 cells; 0.075 μM, MOI 0.6, Plate 2): 29.56% and 33.64% and 33.6% | Cytotoxicity (Vero E6 cells; 0.15 μM, MOI 0.6, Plate 1): 49.52% and 51.36% and 51.37% | Cytotoxicity (Vero E6 cells; 0.15 μM, MOI 0.6, Plate 2): 49.52% and 51.36% and 51.37% | Cytotoxicity (Vero E6 cells; [9]): 49.52% and 51.36% and 51.37% | Cytotoxicity (Vero E6 cells; 0.3 μM, MOI 0.6, Plate 1): 66.57% and 64.56% and 64.1314% | Cytotoxicity (Vero E6 cells; 0.3 μM, MOI 0.6, Plate 2): 66.57% and 64.56% and 64.1314% | Cytotoxicity (Vero E6 cells; [10]): 66.57% | Cytotoxicity (Vero E6 cells; 0.6 μM, MOI 0.6, Plate 1): 79.78% and 76.76% and 75.88% | Cytotoxicity (Vero E6 cells; 0.6 μM, MOI 0.6, Plate 2): 79.78% and 76.76% and 75.88% | toxicity margin or selectivity index, high (Vero E6 cells; 8 tests against SARS-CoV-2): 8.2 | toxicity margin or selectivity index, low (Vero E6 cells; 8 tests against SARS-CoV-2): 3.1 | average toxicity margin or selectivity index (Vero E6 cells; 8 tests against SARS-CoV-2, average): 4.8 | LD50, multi dose ([7]; × 24 days): 0.05 × 24 days mg/kg | LD50, single dose [7]: 1.2 mg/kg | LD50, total dose (multi dose) [7]: 1.2 mg/kg | LD50, multi dose ([8]; × 9 days): 0.5 × 9 days mg/kg | LD50, single dose [8]: 4 mg/kg | LD50, total dose (multi dose) [8]: 4.5 mg/kg
